Data as given in PubChem BioAssay (NCI).
Where “and” joins values, the source holds several entries; their conditions need not be identical. Identical values can stand only once.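 Exposure lasted 48 hours, with cells grown in 96-well plates and compounds tested at five concentrations. GI50 marks 50% less growth. TGI: concentration producing complete growth inhibition.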

Columns and labels:
Assay in all cases: NCI-60 cell line screen, 48 h
TK-10 renal = system: TK-10 renal
OVCAR-5 ovarian = system: OVCAR-5 ovarian
SF-295 CNS = system: SF-295 CNS
KM12 colon = system: KM12 colon
HCT-15 colon = system: HCT-15 colon
A498 renal = system: A498 renal
EKVX NSCLC = system: EKVX NSCLC
A549 NSCLC = system: A549 NSCLC
SF-268 CNS = system: SF-268 CNS
HCT-116 colon = system: HCT-116 colon

Compound	TGI (TK-10 renal) [µM]	TGI (OVCAR-5 ovarian)	TGI (SF-295 CNS)	TGI (KM12 colon)	TGI (HCT-15 colon)	TGI (A498 renal)	TGI (EKVX NSCLC)	TGI (A549 NSCLC)	TGI (SF-268 CNS)	TGI (HCT-116 colon) [µM]	GI50 (SF-295 CNS) [µM]	GI50 (KM12 colon) [µM]	GI50 (OVCAR-5 ovarian) [nM]	GI50 (EKVX NSCLC) [nM]	GI50 (A549 NSCLC)
Cc1cc(NS(=O)(=O)c2ccc(Nc3c4ccccc4nc4c(C(=O)NC(CO)(CO)CO)cccc34)cc2)no1	61.7	> 100 µM	> 100 µM	71.4 µM	> 100 µM	> 100 µM	> 100 µM	> 100 µM	60.6 µM						
O=C(NC1=C(Cl)C(=O)c2ccccc2C1=O)C(=O)c1c(O)c2ccccc2oc1=O	37.7	26.3 µM	9.58 µM	31.3 µM	13.7 µM	33.9 µM	22.4 µM	6.07 µM	25.6 µM	7.47					
Oc1c(NCn2nc(CCCCCCCCc3nn(CNc4ccc5ccccc5c4O)c(=S)o3)oc2=S)ccc2ccccc12	> 100	> 100 µM	> 100 µM	> 100 µM	> 100 µM	> 100 µM	> 100 µM	> 100 µM	> 100 µM	50.4					
NCCCNCCSP(=O)(O)O		> 750 µM	> 750 µM	> 750 µM	> 645 µM	> 75 µM	> 750 µM	> 750 µM	> 750 µM	> 750					
Cc1c2oc(=O)c(C#N)cc2c2ccccn12	> 100	> 100 µM	40.7 µM	> 100 µM	> 100 µM	> 100 µM	> 100 µM	> 100 µM	> 100 µM	> 100					
Cc1ccc(N2Cc3c(ccc4ccccc34)OP2(=S)N2CCCC2)cc1 (stereo not given)		> 100 µM	> 100 µM	> 100 µM	> 100 µM	> 100 µM	> 100 µM	> 100 µM	> 100 µM	> 100					
CN1COCN=C1NC#N		> 100 µM	> 100 µM	> 100 µM	> 100 µM	> 100 µM	> 100 µM	> 100 µM	> 100 µM	> 100					
COc1ccc(Cn2c(=O)c(OS(=O)(=O)C(F)(F)F)c(C)c3cc4ccccc4cc32)cc1	> 100	> 100 µM	> 100 µM	> 100 µM	> 100 µM		> 100 µM	> 100 µM	> 100 µM	> 100					
CC1(C)CC(=O)C2=C(C1)NC(=S)C(C#N)C2c1ccccc1 (stereo not given)	> 100	> 100 µM	> 100 µM		> 100 µM		> 100 µM	> 100 µM	> 100 µM	> 100					
COC(=O)c1c(CC(=O)OC(C)C)cc2n(c1=O)Cc1c-2nc2ccccc2c1OC	> 100	> 100 µM	> 100 µM		> 100 µM	> 100 µM	> 100 µM	> 100 µM	> 100 µM	> 100					
Cc1noc(-c2ccc(C(=O)O)[nH]2)c1Br	> 100	> 100 µM	> 100 µM	> 100 µM	> 100 µM	> 100 µM	> 100 µM	> 100 µM	> 100 µM	> 100					
O=C(O)C12C=CC(C1)c1ccccc12 (stereo not given)	> 100	> 100 µM	> 100 µM		> 100 µM	> 100 µM		> 100 µM	> 100 µM	> 100					
CSCSCC(CO)NC(=O)/C=C\c1c(C)[nH]c(=O)[nH]c1=O (stereo not given)		277 µM	209 µM	156 µM	214 µM	229 µM	153 µM	375 µM	112 µM	96.4	62.1	10.8			
COC(=O)[C@@H]1C=CCN1S(=O)(=O)c1ccc(C)cc1	> 100	> 100 µM	> 100 µM	> 100 µM	> 100 µM	> 100 µM	> 100 µM	> 100 µM	> 100 µM	> 100					
C/C(=N\Nc1nc2cc(F)ccc2s1)c1ccccn1		50.1 µM	4.67 µM	> 23.4 µM	2.12 µM	> 100 µM			1.65 µM	13.2					
O=C(NNC(=O)c1ccc(Cl)cc1NC(=O)C12CC3CC(CC(C3)C1)C2)c1ccc(Cl)cc1	57.2	74.4 µM	57 µM	54.4 µM	35.9 µM		69.8 µM	42.8 µM	> 100 µM	58.1					
Oc1ccc(Nc2nc(Cl)c3[nH]cnc3n2)cc1	> 100	> 100 µM	> 100 µM	> 100 µM	> 100 µM	> 100 µM	> 100 µM	> 100 µM	> 100 µM	> 100					
COc1c(NC(C)=O)c2ccccc2c2ccccc12	> 100	> 100 µM	> 100 µM	> 100 µM	> 100 µM	> 100 µM	> 100 µM	> 100 µM	> 100 µM	> 100					
CC(=O)c1c(-c2ccco2)c(C#N)c(=S)n(C2OC(CO)C(O)C(O)C2O)c1C (stereo not given)	> 100	> 100 µM	> 100 µM	> 100 µM	> 100 µM		> 100 µM	> 100 µM	> 100 µM	> 100					
COc1ccc(-c2nc(-c3cnccn3)n(C/C=C/c3ccccc3)n2)cc1		> 100 µM	73.4 µM	> 100 µM	> 100 µM			> 100 µM		> 100					
C=C1c2nc3ccccc3n2C=C(c2ccccc2)N1c1ccc(C)cc1	> 100	> 100 µM	> 100 µM	56.1 µM	> 100 µM	> 100 µM	> 100 µM	> 100 µM		> 100					
COc1cc(/C=C2\N=C(c3ccccc3)N(c3cc4cc(Sc5ccccc5)ccc4[nH]3)C2=O)ccc1O		> 50 µM		> 50 µM	> 50 µM		> 50 µM	> 50 µM		> 50					
CCN(CC)CC[n+]1ccc2c(C)c3[nH]c4ccccc4c3c(C)c2c1	25.3	5.15 µM and 15 µM and 7.28 µM	6.9 µM and 15.1 µM and 6.83 µM	2.39 µM and 1.45 µM and 2.76 µM	80.5 µM and 110 µM	25.2 µM and 28.8 µM and 17.9 µM	8.97 µM and 16.4 µM and 4.14 µM	5.22 µM and 5.45 µM and 8.14 µM	1.07 µM and 1.28 µM and 1.64 µM		1.28		2740	1480	466 nM and 498 nM and 951 nM
